# Measurements taken from patent publication US20180282281A1, “IMMUNOREGULATORY AGENTS” (FLEXUS BIOSCIENCES, INC., priority 2014, published 2018).
# Molecular target: T1, human IDO1 (Homo sapiens, UniProt P14902)
# T1 construct: expressed in transfected cells
# Test: HEK293 human IDO1 cell-based IDO inhibition assay
# Conditions: HEK293 cells stably expressing human IDO1; 20 hours incubation; absorbance at 490 nm (Ehrlich reagent); 500 nM reference standard = 100% inhibition; read-out: HEK Human IDO-1 Potency
# Procedure: 1HEK293 cells were transfected with a pCDNA-based mammalian expression vector harboring human IDO1 cDNA (NM 002164.2) by electroporation. They were cultured in medium (DMEM with 10% FBS) containing 1 mg/ml G418 for two weeks. Clones of HEK293 cells that stably expressed human IDO1 protein were selected and expanded for IDO inhibition assay.
# The human IDOL/HEK293 cells were seeded at 10,000 cells per 50 μL per well with RPMI/phenol red free media contains 10% FBS in a 384-well black wall clear bottom tissue culture plate (Matrix Technologies LLC) 100 nL of certain concentration of compound was then added to each well using ECHO liquid handling systems. The cells were incubated for 20 hours in 37° C. incubator with 5% CO2.
# The compound treatments were stopped by adding Trichloroacetic Acid (Sigma-Aldrich) to a final concentration at 0.2%. The cell plate was further incubated at 50° C. for 30 minute. The equal volume supernatant (20 μL) and 0.2% (w/v) Ehrlich reagent (4-dimethylaminobenzaldehyde, Sigma-Aldrich) in glacial acetic acid were mixed in a new clear bottom 384-well plate. This plate was then incubated at room temperature for 30 minute. The absorbance at 490 nm was measured on Envision plate reader.
# T1 sequence (P14902 whole entry): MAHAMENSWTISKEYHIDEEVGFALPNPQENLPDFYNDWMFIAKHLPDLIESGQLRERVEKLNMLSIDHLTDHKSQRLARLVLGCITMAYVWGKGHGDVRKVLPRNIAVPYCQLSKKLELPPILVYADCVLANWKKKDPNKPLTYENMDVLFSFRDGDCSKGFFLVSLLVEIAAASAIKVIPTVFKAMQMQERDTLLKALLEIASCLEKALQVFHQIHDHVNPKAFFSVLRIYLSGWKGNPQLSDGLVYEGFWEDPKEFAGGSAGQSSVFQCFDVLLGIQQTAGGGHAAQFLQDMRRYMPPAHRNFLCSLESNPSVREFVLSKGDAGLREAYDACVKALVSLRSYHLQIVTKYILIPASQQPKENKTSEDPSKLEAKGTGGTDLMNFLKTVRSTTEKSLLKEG
row,Compound,IC50 [µM]
1,N-(4-chlorophenyl)-2-(cis-4-(6-fluoroquinolin-4-yl)-1-hydroxycyclohexyl) propanamide [Example 231],< 0.25
2,N-(4-chlorophenyl)-2-(cis-4-(6-fluoroquinolin-4-yl)-1-hydroxycyclohexyl) propanamide [Example 232],< 0.05

# Same assay, conditions: read-out: HEK Human IDO-1 Potency
row,Compound,IC50 [µM]
1,"C[C@@H](C(=O)Nc1ccc(C(F)(F)F)c(C#N)c1)[C@H]1CC[C@@H](c2ccnc3ccc(F)cc32)CC1 [Example 82, (R)—N-(3-Cyano-4-(trifluoromethyl)phenyl)-2-((cis)-4-(6-fluoroquinolin-4-yl)cyclohexyl)propanamide]",< 0.25
2,"C[C@@H](C(=O)Nc1ccc(Cl)c(Cl)c1)[C@H]1CC[C@@H](c2ccnc3ccc(F)cc32)CC1 [Example 66, (R)-N-(3,4-dichlorophenyl)-2-((cis)-4-(6-fluoroquinolin-4-yl)cyclohexyl)propanamide]",< 0.05
3,"CCCC(C(=O)NC1(C)CCCCC1)N1CCN(c2ccnc3ccc(F)cc23)CC1 (racemic) [Example 247, (±)-2-(4-(6-Fluoroquinolin-4-yl)piperazin-1-yl)-N-(1-methylcyclohexyl)pentanamide]",> 0.25
4,"C[C@@H](C(=O)Nc1ccc(Cl)cc1)[C@H]1CC[C@@H](c2ccnc3ccc(I)cc32)CC1 (single isomer, unassigned) [Example 152b]",< 0.05
5,"CCC(C(=O)Nc1ccc(Cl)cc1)[C@H]1CC[C@@H](Oc2cc(C(F)(F)F)nc3ccccc23)CC1 (single isomer, unassigned) [Example 88a, N-(4-Chlorophenyl)-2-((cis)-4-((2-(trifluoromethyl)quinolin-4-yl)oxy)cyclohexyl)butanamide]",< 0.05
6,"Cc1cc(F)ccc1NC(=O)[C@H](C)[C@H]1CC[C@@H](c2ccnc3ccc(F)cc32)CC1 [Example 59, (R)-N-(4-fluoro-2-methylphenyl)-2-((cis)-4-(6-fluoroquinolin-4-yl)cyclohexyl)propanamide]",> 0.25
7,"CCC(C(=O)Nc1ccc(Cl)cc1)C1CCN(c2ccnc3ccc(F)cc23)CC1 (racemic) [Example 243, (±)—N-(4-Chlorophenyl)-2-(1-(6-fluoroquinolin-4-yl)piperidin-4-yl)butanamide]",> 0.25
8,CCC(C(=O)Nc1ccc(Cl)cc1)N1CCC(Oc2ccnc3ccc(F)cc23)CC1 (stereo not drawn) [compound 111],< 0.25
9,"CCC(C(=O)Nc1ccc(Cl)cc1)[C@H]1CC[C@H](Oc2ccnc3cc(C(F)(F)F)ccc23)CC1 (mixture of isomers) [Example 83, (±)—N-(4-Chlorophenyl)-2-((trans)-4-((7-(trifluoromethyl)quinolin-4-yl)oxy)cyclohexyl)butanamide]",< 0.25
10,"C[C@@H](C(=O)Nc1ccc(C(F)(F)F)cc1)[C@H]1CC[C@@H](c2ccnc3ccc(F)cc32)CC1 [Example 60, (R)-2-((cis)-4-(6-fluoroquinolin-4-yl)cyclohexyl)-N-(4-(trifluoromethyl)phenyl)propanamide]",< 0.05
11,"C[C@@H](C(=O)NC1CC2CCC1C2)[C@H]1CC[C@@H](c2ccnc3ccc(F)cc32)CC1 (stereo partly drawn) [Example 240, (2R)-N-((2S)-bicyclo[2.2.1]heptan-2-yl)-2-(cis-4-(6-fluoroquinolin-4-yl)cyclohexyl)propanamide]",< 0.25
12,"CC(C(=O)Nc1ccc(Cl)cc1)N1CCN(c2ccnc3ccc(F)cc23)CC1 (single isomer, unassigned) [Example 130, N-(4-Chlorophenyl)-2-(4-(6-fluoroquinolin-4-yl)piperazin-1-yl)propanamide]",> 0.25
13,"CCC(C(=O)Nc1ccc(Cl)cc1)[C@H]1CC[C@H](Oc2cc(C(F)(F)F)nc3ccccc23)CC1 (mixture of isomers) [Example 84, (±)—N-(4-Chlorophenyl)-2-((trans)-4-((2-(trifluoromethyl)quinolin-4-yl)oxy)cyclohexyl)butanamide]",> 0.25
14,"CC(C)C(C(=O)Nc1ccc(Cl)cc1)N1CCC(Oc2ccnc3ccc(F)cc23)CC1 (racemic) [Example 102, (±)—N-(4-Chlorophenyl)-2-(4-((6-fluoroquinolin-4-yl)oxy)piperidin-1-yl)-3-methylbutanamide]",> 0.25
15,"CC(C(=O)O)c1ccc(C[C@@H](C(=O)Nc2ccc(Cl)cc2)[C@H]2CC[C@@H](c3ccnc4ccc(F)cc43)CC2)cc1 (mixture of isomers) [Example 137, 2-(4-((R)-3-((4-Chlorophenyl)amino)-2-((cis)-4-(6-fluoroquinolin-4-yl)cyclohexyl)-3-oxopropyl)phenyl)propanoic Acid]",< 0.05
16,"C[C@@H](C(=O)N(C)c1ccccc1)[C@H]1CC[C@@H](c2ccnc3ccc(F)cc32)CC1 [Example 69, (R)-2-((cis)-4-(6-fluoroquinolin-4-yl)cyclohexyl)-N-methyl-N-phenylpropanamide]",> 0.25
17,"C[C@@H](C(=O)Nc1ccc(Cl)cc1)[C@H]1CC[C@@H](c2ccnc3ccnn32)CC1 (single isomer, unassigned) [Example 144b]",> 0.25
18,"CCC(C(=O)Nc1ccc(Cl)cc1)[C@H]1CC[C@@H](Oc2ccnc3ccc(C(F)(F)F)cc23)CC1 (single isomer, unassigned) [Example 89a, N-(4-Chlorophenyl)-2-((cis)-4-((6-(trifluoromethyl)quinolin-4-yl)oxy)cyclohexyl)butanamide]",< 0.25
19,"C[C@@H](C(=O)Nc1ccc(Cl)cc1)[C@H]1CC[C@H](c2ccnc3ncccc32)CC1 (single isomer, unassigned) [Example 148d]",< 0.25
20,"CC(C(=O)O)c1ccc(C[C@@H](C(=O)Nc2ccc(Cl)cc2)[C@H]2CC[C@@H](c3ccnc4ccccc43)CC2)cc1 (single isomer, unassigned) [Example 87a]",< 0.05
21,"CC1(CC(=O)NC2(C)CCCCC2)CCN(c2ccnc3ccc(F)cc23)CC1 [Example 242, 2-(1-(6-Fluoroquinolin-4-yl)-4-methylpiperidin-4-yl)-N-(1-methylcyclohexyl)acetamide]",< 0.05
22,"CC(C(=O)Nc1ccc(Cl)cc1)C1CCC(c2ccnc3cn[nH]c23)CC1 (racemic) [Example 149, (±)-2-(Cis- and trans-4-(1H-pyrazolo[4,3-b]pyridin-7-yl)cyclohexyl)-N-(4-chlorophenyl)propanamide]",< 0.05
23,CCC(C(=O)Nc1ccc(Cl)cc1)N1CCC(Oc2ccnc3ccc(F)cc23)CC1 (stereo not drawn) [compound 98],< 0.25
24,"C[C@H](C(=O)Nc1ccc(Cl)cc1)[C@H]1CC[C@H](c2ccnc3ccnn32)CC1 (single isomer, unassigned) [Example 144c]",< 0.25
25,"C[C@H](C(=O)Nc1ccc(Cl)cc1)[C@H]1CC[C@@H](c2ccnc3ccnn32)CC1 (single isomer, unassigned) [Example 144a]",< 0.05
26,Cc1ccc(NC(=O)C(C)N2CCC(Oc3ccnc4ccc(F)cc34)CC2)cc1 (stereo not drawn) [compound 101],< 0.05
27,"CCOc1ccc(NC(=O)[C@H](C)[C@H]2CC[C@@H](c3ccnc4ccc(F)cc43)CC2)cc1 [Example 78, (R)-N-(4-ethoxyphenyl)-2-((cis)-4-(6-fluoroquinolin-4-yl)cyclohexyl)propanamide]",< 0.05
28,"C[C@@H](C(=O)Nc1cccnc1)[C@H]1CC[C@@H](c2ccnc3ccc(F)cc32)CC1 [Example 76, (R)-2-((cis)-4-(6-fluoroquinolin-4-yl)cyclohexyl)-N-(pyridin-3-yl)propanamide]",< 0.05
